Assay results as given in US6653337B2, “Therapy of auto-immune disease by a photochemotherapeutical method” (Meiji Seika Kaisha, Ltd., priority 1996, dated 2003).
Where “and” joins values, the source holds several entries; their conditions need not be identical. Identical values can stand only once. Entries after “also recorded” stand apart in the source; their conditions may differ.

Columns and labels:
[1] = in vivo
MRL/1pr mice [2] = assay: Survival of MRL/1pr mice after NPe6 photochemotherapy; type: in vivo; details: for Survival rate (%) of the mice: treated group, 8 mice
Description: (§1) MRL/1pr mice, which are known as a model of a spontaneous systemic auto-immune diseases, have such inherent property that they spontaneously develop the systemic auto-immune disease due to 1pr-gene. In this case, the characteristic observations of the resulting auto-immune disease include the formation of lymphoma and splenoma as caused by proliferation of heterolymphoid cells, the production of anti-ds-DNA antibody as the auto-antibody, and (or) the outbreak of lupus nephritis owing to the deposition of immune complexes, whereby an early death of the MRL/1pr mice can naturally be involved. For instance, untreated MRL/1pr mice usually have such nature that their mortality reaches 50% at 25 week-old.
(§2) To MRL/1pr mice (eight mice per group) of 18 week-old age which have been affected completely by auto-immune diseases, a solution of mono-L-aspartyl chlorin e6 tetrasodium salt (abbreviation: NPe6) dissolved in a physiological saline solution at a NPe6 concentration of 0.1 mg/ml was intra-venously administered in such an amount to give a dosage of NPe6 of 0.5 mg/kg. After 30 minutes from the administration of NPe6, the mice were irradiated with a laser light at wave-length of 664 nm in such a manner that the skin surface on the abdominal region already shaved off of said mice would receive the laser light over a wide area of about 25 cm^2 per mouse tested at an intensity of 20 Joules/cm^2. Thus, the NPe6 contained in the blood stream within the blood vessel beneath the skin of the abdominal region of the mice was irradiated with the laser light and thereby was excited photochemically. Such photochemotherapeutic procedure comprising the intravenous administration of NPe6 and the irradiation of the laser light was applied eight times to each of the mice under test for 10 days. After 24 hours from the completion of the therapeutic treatments, which was counted from the final run of irradiation of the laser light applied to the mice of the treated group, and thus at the time when the mice tested became 19 week-old, the judgment was made about the therapeutical effects appeared on the treated mice. Further, the survival effect on the treated mice was also observed over the period of from the start of practicing this therapeutic treatments to the point of the 49 week-old age of the mice.
For the untreated group of MRL/1pr mice (10 mice per group, 18-weeks old), merely a physiological saline solution (containing no NPe6) was administered intravenously in the same amount as that for the treated group of mice, and then the mice were irradiated with a laser light as similar as the treated group of mice.
(3) After the completion of the treatment as effected by the above-mentioned photochemotherapeutic procedure, the mice under the test were bred to be 49-weeks old and the survival rate (%) of the mice was measured once a week.

MRL/1pr mice [3] = assay: Liver (GPT enzyme in blood) and skin safety in MRL/1pr mice after NPe6 photochemotherapy; type: in vivo
Protocol: as §2, with “Such photochemotherapeutic procedure comprising the intravenous administration of NPe6 and the irradiation of the laser light was applied eight times to each of the mice under test for 10 days.” left out, “Further, the survival effect on the treated mice was also observed over the period of from the start of practicing this therapeutic treatments to the point of the 49 week-old age of the mice.” left out

CD-1 mice (male) = assay: Acute toxicity of NPe6 in mice (LD50); type: in vivo
MRL/1pr mice [4] = assay: Kidney function (urea nitrogen in blood, protein in urine) of MRL/1pr mice after NPe6 photochemotherapy; type: in vivo; details: 19 weeks old, 24 h after 8th laser irradiation, NPe6 0.5 mg/kg i.v. + 664 nm laser, eight times
Description: as §1
(§3) To MRL/1pr mice (eight mice per group) of 18 week-old age which have been affected completely by auto-immune diseases, a solution of mono-L-aspartyl chlorin e6 tetrasodium salt (abbreviation: NPe6) dissolved in a physiological saline solution at a NPe6 concentration of 0.1 mg/ml was intra-venously administered in such an amount to give a dosage of NPe6 of 0.5 mg/kg. […] After 24 hours from the completion of the therapeutic treatments, which was counted from the final run of irradiation of the laser light applied to the mice of the treated group, and thus at the time when the mice tested became 19 week-old, the judgment was made about the therapeutical effects appeared on the treated mice. […]

anti-ds-DNA antibody = assay: Anti-ds-DNA antibody value in blood of MRL/1pr mice after NPe6 photochemotherapy (Anti-DNA kit); type: in vivo
Description: as §1, §3

Compound: C=Cc1c(C)c2cc3nc(c(CC(=O)N[C@@H](CC(=O)[O-])C(=O)[O-])c4[nH]c(cc5nc(cc1[nH]2)C(C)=C5CC)c(C)c4C(=O)[O-])[C@@H](CCC(=O)[O-])[C@@H]3C.[Na+].[Na+].[Na+].[Na+] [NPe6, mono-L-aspartyl chlorin e6 tetrasodium salt]
- photo-toxicity test: reactions such as erythema, edema [1]: no reactions such as erythema, edema
- Survival rate (%) of the mice (MRL/1pr mice [2]; age 18 weeks (start of treatment), number in parentheses = surviving mice): 100 (8) %
- Survival rate (%) of the mice (MRL/1pr mice [2]; age 20 weeks): 100 (8) %
- Survival rate (%) of the mice (MRL/1pr mice [2]; age 21 weeks): 100 (8) %
- Survival rate (%) of the mice (MRL/1pr mice [2]; age 23 weeks): 100 (8) %
- Survival rate (%) of the mice (MRL/1pr mice [2]; age 25 weeks): 100% and 100 (8) %
- Survival rate (%) of the mice (MRL/1pr mice [2]; age 27 weeks): 100 (8) %
- Survival rate (%) of the mice (MRL/1pr mice [2]; age 30 weeks): 100 (8) %
- Survival rate (%) of the mice (MRL/1pr mice [2]; age 33 weeks): 88 (7) %
- Survival rate (%) of the mice (MRL/1pr mice [2]; age 36 weeks): 88 (7) %
- Survival rate (%) of the mice (MRL/1pr mice [2]; age 43 weeks): 75 (6) %
- Survival rate (%) of the mice (MRL/1pr mice [2]; age 46 weeks): 63 (5) %
- Survival rate (%) of the mice (MRL/1pr mice [2]; age 49 weeks): 63 (5) %
- age at which the survival rate of the mice is 50 % (MRL/1pr mice [2]; treated group of MRL/1pr mice): > 49 weeks
- content of GPT enzyme in the blood compared with untreated group (MRL/1pr mice [3]; 19 weeks old, 24 h after 8th laser irradiation): no difference was found
- visual observation of the skin after eight percutaneous laser irradiations (MRL/1pr mice [3]; shaved abdominal region, 664 nm laser 20 Joules/cm^2): not observed visually that any action of changing the skin was involved
- acute toxicity, LD50 value (CD-1 mice (male)): 164 mg/kg
- content of protein in urine (MRL/1pr mice [4]): 85.2 ± 5.0 mg/dL
- content of urea nitrogen in blood (MRL/1pr mice [4]): 22.3 ± 1.4 mg/dL
- antibody value of anti-ds-DNA antibody in blood (anti-ds-DNA antibody; 19 weeks old, 24 h after 8th laser irradiation, NPe6 0.5 mg/kg i.v. + 664 nm laser 20 Joules/cm^2, eight times for 10 days): 5.7±5.3 IU/ml
- effect on antibody value of the auto-antibody (anti-ds-DNA) in blood, in words (anti-ds-DNA antibody; NPe6 i.v. + laser light at 664 nm, versus untreated group): decreasing remarkably the antibody value; also recorded: significantly and remarkably decreased
